Measurements as given in PubChem BioAssay AID1963834 (Molecular Pharmacology Branch, DTP, NCI, 2024).

Tested on: 873145-292-R-J1-PDC complex spheroid viability
Assay: Anticancer human tumor 873145-292-R-J1-PDC patient-derived renal clear cell carcinoma cell line growth inhibition [POLQ]
Details: for IC50: curve of first compound; for viability, T/C: stronger effect = lower value
Outline: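 Three-cell-type spheroids modelling solid tumor plus stroma served as the readout system; POL inhibitors were tested individually and in combination, concentration ranges set by clinical Cmax where known.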

[1] = second compound 0.0316 µM, first compound 0.0316 µM
[2] = second compound 0.0316 µM, first compound 0.1 µM
[3] = second compound 0.0316 µM, first compound 0.316 µM
[4] = second compound 0.0316 µM, first compound 1 µM
[5] = second compound 0.0316 µM, first compound 3.16 µM
[6] = second compound 0.0316 µM, first compound 10 µM
[7] = second compound 0.1 µM, first compound 0.0316 µM
[8] = second compound 0.1 µM, first compound 0.1 µM
[9] = second compound 0.1 µM, first compound 0.316 µM
[10] = second compound 0.1 µM, first compound 1 µM
[11] = second compound 0.1 µM, first compound 3.16 µM
[12] = second compound 0.1 µM, first compound 10 µM
[13] = second compound 0.316 µM, first compound 0.0316 µM
[14] = second compound 0.316 µM, first compound 0.1 µM
[15] = second compound 0.316 µM, first compound 0.316 µM
[16] = second compound 0.316 µM, first compound 1 µM
[17] = second compound 0.316 µM, first compound 3.16 µM
[18] = second compound 0.316 µM, first compound 10 µM
[19] = second compound 1 µM, first compound 0.0316 µM
[20] = second compound 1 µM, first compound 0.1 µM
[21] = second compound 1 µM, first compound 0.316 µM
[22] = second compound 1 µM, first compound 1 µM
[23] = second compound 1 µM, first compound 3.16 µM
[24] = second compound 1 µM, first compound 10 µM
[25] = second compound 3.16 µM, first compound 0.0316 µM
[26] = second compound 3.16 µM, first compound 0.1 µM
[27] = second compound 3.16 µM, first compound 0.316 µM
[28] = second compound 3.16 µM, first compound 1 µM
[29] = second compound 3.16 µM, first compound 3.16 µM
[30] = second compound 3.16 µM, first compound 10 µM
[31] = second compound 10 µM, first compound 0.0316 µM
[32] = second compound 10 µM, first compound 0.1 µM
[33] = second compound 10 µM, first compound 0.316 µM
[34] = second compound 10 µM, first compound 1 µM
[35] = second compound 10 µM, first compound 3.16 µM
[36] = second compound 10 µM, first compound 10 µM
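Further: spheroids exposed to compounds for 7 days before viability readout.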
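Wherever viability, T/C is given: luminescence signal used as surrogate for viable cell content; 100% = DMSO vehicle control viability.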

## CCc1cc2c(N3CCc4c(cc(Cn5ccnc5)cc4-c4cn(C)nc4C(F)(F)F)C3=O)ccnc2c(OC)n1 + Nc1ccc(C#CCN(C(=O)Cc2ncc(C(F)(F)F)cc2C(F)(F)F)c2ccc(F)cc2)nn1
Second compound 0.0316 µM
  IC50: > 10 µM
Second compound 0.1 µM
  IC50: > 10 µM
Second compound 0.316 µM
  IC50: > 10 µM
Second compound 1 µM
  IC50: > 10 µM
Second compound 3.16 µM
  IC50: > 10 µM
Second compound 10 µM
  IC50: > 10 µM
[1]
  viability, T/C: 97.9%
[2]
  viability, T/C: 106%
[3]
  viability, T/C: 87.8%
[4]
  viability, T/C: 89.5%
[5]
  viability, T/C: 81.3%
[6]
  viability, T/C: 80.9%
[7]
  viability, T/C: 98.7%
[8]
  viability, T/C: 110%
[9]
  viability, T/C: 82.9%
[10]
  viability, T/C: 92.8%
[11]
  viability, T/C: 102%
[12]
  viability, T/C: 69.5%
[13]
  viability, T/C: 101%
[14]
  viability, T/C: 111%
[15]
  viability, T/C: 82.3%
[16]
  viability, T/C: 82.5%
[17]
  viability, T/C: 101%
[18]
  viability, T/C: 70.8%
[19]
  viability, T/C: 92.7%
[20]
  viability, T/C: 89.5%
[21]
  viability, T/C: 79.6%
[22]
  viability, T/C: 87.6%
[23]
  viability, T/C: 94.3%
[24]
  viability, T/C: 72.2%
[25]
  viability, T/C: 99.8%
[26]
  viability, T/C: 96.7%
[27]
  viability, T/C: 82.2%
[28]
  viability, T/C: 99.6%
[29]
  viability, T/C: 80.9%
[30]
  viability, T/C: 74.1%
[31]
  viability, T/C: 106%
[32]
  viability, T/C: 96.5%
[33]
  viability, T/C: 97.8%
[34]
  viability, T/C: 104%
[35]
  viability, T/C: 84.9%
[36]
  viability, T/C: 77.7%

## COc1cc2cc(C(=O)CCC(=O)O)sc2cc1OC + Nc1ccc(C#CCN(C(=O)Cc2ncc(C(F)(F)F)cc2C(F)(F)F)c2ccc(F)cc2)nn1
Second compound 0.0316 µM
  IC50: > 10 µM
Second compound 0.1 µM
  IC50: > 10 µM
Second compound 0.316 µM
  IC50: > 10 µM
Second compound 1 µM
  IC50: > 10 µM
Second compound 3.16 µM
  IC50: > 10 µM
Second compound 10 µM
  IC50: > 10 µM
[1]
  viability, T/C: 94.6%
[2]
  viability, T/C: 116%
[3]
  viability, T/C: 95.8%
[4]
  viability, T/C: 97.8%
[5]
  viability, T/C: 104%
[6]
  viability, T/C: 102%
[7]
  viability, T/C: 106%
[8]
  viability, T/C: 115%
[9]
  viability, T/C: 92.3%
[10]
  viability, T/C: 107%
[11]
  viability, T/C: 121%
[12]
  viability, T/C: 91.5%
[13]
  viability, T/C: 104%
[14]
  viability, T/C: 116%
[15]
  viability, T/C: 96.8%
[16]
  viability, T/C: 99.3%
[17]
  viability, T/C: 97.2%
[18]
  viability, T/C: 89.8%
[19]
  viability, T/C: 104%
[20]
  viability, T/C: 105%
[21]
  viability, T/C: 112%
[22]
  viability, T/C: 105%
[23]
  viability, T/C: 104%
[24]
  viability, T/C: 92.5%
[25]
  viability, T/C: 112%
[26]
  viability, T/C: 104%
[27]
  viability, T/C: 91.8%
[28]
  viability, T/C: 106%
[29]
  viability, T/C: 103%
[30]
  viability, T/C: 103%
[31]
  viability, T/C: 113%
[32]
  viability, T/C: 105%
[33]
  viability, T/C: 119%
[34]
  viability, T/C: 110%
[35]
  viability, T/C: 103%
[36]
  viability, T/C: 105%

## COc1ccc([C@@H](O)c2cc(-c3ncnc4cc(N5CCOCC5)ccc34)c(F)cc2Cl)nn1 + Nc1ccc(C#CCN(C(=O)Cc2ncc(C(F)(F)F)cc2C(F)(F)F)c2ccc(F)cc2)nn1
Second compound 0.0316 µM
  IC50: 4.69 µM
Second compound 0.1 µM
  IC50: 5.13 µM
Second compound 0.316 µM
  IC50: 5.16 µM
Second compound 1 µM
  IC50: 6.14 µM
Second compound 3.16 µM
  IC50: 5.93 µM
Second compound 10 µM
  IC50: > 10 µM
[1]
  viability, T/C: 102%
[2]
  viability, T/C: 91.9%
[3]
  viability, T/C: 86.2%
[4]
  viability, T/C: 64.2%
[5]
  viability, T/C: 54.1%
[6]
  viability, T/C: 44.4%
[7]
  viability, T/C: 92.8%
[8]
  viability, T/C: 91.4%
[9]
  viability, T/C: 82.9%
[10]
  viability, T/C: 64.9%
[11]
  viability, T/C: 58.1%
[12]
  viability, T/C: 42.2%
[13]
  viability, T/C: 90.8%
[14]
  viability, T/C: 114%
[15]
  viability, T/C: 76.1%
[16]
  viability, T/C: 67.3%
[17]
  viability, T/C: 60.7%
[18]
  viability, T/C: 41.1%
[19]
  viability, T/C: 92.4%
[20]
  viability, T/C: 85.4%
[21]
  viability, T/C: 92.1%
[22]
  viability, T/C: 78.6%
[23]
  viability, T/C: 59.8%
[24]
  viability, T/C: 43%
[25]
  viability, T/C: 99.5%
[26]
  viability, T/C: 93.6%
[27]
  viability, T/C: 81.4%
[28]
  viability, T/C: 74%
[29]
  viability, T/C: 51%
[30]
  viability, T/C: 47.3%
[31]
  viability, T/C: 104%
[32]
  viability, T/C: 105%
[33]
  viability, T/C: 86.5%
[34]
  viability, T/C: 81%
[35]
  viability, T/C: 60%
[36]
  viability, T/C: 53.6%

## O=C(Nc1ccc(O)c(NS(=O)(=O)c2ccc(F)cc2)c1)c1ccc(-c2ccccc2)cc1 + Nc1ccc(C#CCN(C(=O)Cc2ncc(C(F)(F)F)cc2C(F)(F)F)c2ccc(F)cc2)nn1
Second compound 0.0316 µM
  IC50: > 10 µM
Second compound 0.1 µM
  IC50: > 10 µM
Second compound 0.316 µM
  IC50: > 10 µM
Second compound 1 µM
  IC50: > 10 µM
Second compound 3.16 µM
  IC50: > 10 µM
Second compound 10 µM
  IC50: > 10 µM
[1]
  viability, T/C: 98%
[2]
  viability, T/C: 112%
[3]
  viability, T/C: 113%
[4]
  viability, T/C: 96.3%
[5]
  viability, T/C: 110%
[6]
  viability, T/C: 102%
[7]
  viability, T/C: 113%
[8]
  viability, T/C: 113%
[9]
  viability, T/C: 95.9%
[10]
  viability, T/C: 101%
[11]
  viability, T/C: 107%
[12]
  viability, T/C: 98.9%
[13]
  viability, T/C: 102%
[14]
  viability, T/C: 113%
[15]
  viability, T/C: 114%
[16]
  viability, T/C: 108%
[17]
  viability, T/C: 113%
[18]
  viability, T/C: 98.3%
[19]
  viability, T/C: 112%
[20]
  viability, T/C: 100%
[21]
  viability, T/C: 101%
[22]
  viability, T/C: 98.2%
[23]
  viability, T/C: 100%
[24]
  viability, T/C: 105%
[25]
  viability, T/C: 113%
[26]
  viability, T/C: 103%
[27]
  viability, T/C: 109%
[28]
  viability, T/C: 106%
[29]
  viability, T/C: 98.7%
[30]
  viability, T/C: 106%
[31]
  viability, T/C: 106%
[32]
  viability, T/C: 112%
[33]
  viability, T/C: 105%
[34]
  viability, T/C: 117%
[35]
  viability, T/C: 112%
[36]
  viability, T/C: 93.9%
